Where a SMILES comes first, the peptide text is derived from it. Bridges are numbered along the chain shown (N, C = ends). [ ]: non-standard residue; d: D form. The star is where a group is joined. Biotin = O=C1N[C@H]2[C@H](CS[C@H]2CCCCC(=O)*)N1; 2Nal = N[C@@H](Cc1ccc2ccccc2c1)C(=O)O; Gly(cPent) = N[C@H](C(=O)O)C1CCCC1; Hyp = O=C(O)[C@@H]1C[C@@H](O)CN1; Pen = CC(C)(S)[C@H](N)C(=O)O; Api = NC1(C(=O)O)CCNCC1; Ahx = NCCCCCC(=O)O
Tested on: anti-hemagglutinin antibody clone 12ca5
Experiment: Biolayer interferometry
Format: binding, mouse
Conditions: off-target control

SMILES: CC1(C)SSC[C@H](NC(=O)[C@H](CO)NC(=O)[C@@H](NC(=O)[C@H](CO)NC(=O)C2(NC(=O)[C@H](Cc3ccc4ccccc4c3)NC(=O)[C@H](CO)NC(=O)CCCCCNC(=O)[C@@H](N)CCCCNC(=O)CCCC[C@@H]3SC[C@@H]4NC(=O)N[C@@H]43)CCNCC2)C2CCCC2)C(=O)N2C[C@H](O)C[C@H]2C(=O)N[C@@H](CO)C(=O)N[C@@H](Cc2ccc(O)cc2)C(=O)N[C@@H](CO)C(=O)N[C@@H](CO)C(=O)N2C[C@H](O)C[C@H]2C(=O)N[C@@H]1C(=O)N[C@@H](CO)C(N)=O [NCBP-4 Ser Sub] (H-K(Biotin)[Ahx]S[2Nal][Api]S[Gly(cPent)]SC[Hyp]SYSS[Hyp][Pen]S-NH2; disulfide 9-16; N-terminus assumed)
- nonspecific binding to 12ca5 by BLI (in words): no affinity

— PMC11922053 (Science Advances, 2025)
